Calls of active or inactive are those of the source.
Legend:
HEK293 = test: inhibitors of LMP1-driven NF-kB reporter, dose response, cell-based, HEK293, luciferase, cherry-pick (AID 588343); type: functional; conditions: Homo sapiens
Leucine aminopeptidase = biological target: T1, Leucine aminopeptidase (Plasmodium falciparum 3D7, UniProt Q8IL11); test: P. falciparum M17LAP inhibitors, primary screen, biochemical, fluorogenic H-Leu-NHMec substrate, 1536-well (AID 1619); type: functional
T1 sequence (Q8IL11 whole entry): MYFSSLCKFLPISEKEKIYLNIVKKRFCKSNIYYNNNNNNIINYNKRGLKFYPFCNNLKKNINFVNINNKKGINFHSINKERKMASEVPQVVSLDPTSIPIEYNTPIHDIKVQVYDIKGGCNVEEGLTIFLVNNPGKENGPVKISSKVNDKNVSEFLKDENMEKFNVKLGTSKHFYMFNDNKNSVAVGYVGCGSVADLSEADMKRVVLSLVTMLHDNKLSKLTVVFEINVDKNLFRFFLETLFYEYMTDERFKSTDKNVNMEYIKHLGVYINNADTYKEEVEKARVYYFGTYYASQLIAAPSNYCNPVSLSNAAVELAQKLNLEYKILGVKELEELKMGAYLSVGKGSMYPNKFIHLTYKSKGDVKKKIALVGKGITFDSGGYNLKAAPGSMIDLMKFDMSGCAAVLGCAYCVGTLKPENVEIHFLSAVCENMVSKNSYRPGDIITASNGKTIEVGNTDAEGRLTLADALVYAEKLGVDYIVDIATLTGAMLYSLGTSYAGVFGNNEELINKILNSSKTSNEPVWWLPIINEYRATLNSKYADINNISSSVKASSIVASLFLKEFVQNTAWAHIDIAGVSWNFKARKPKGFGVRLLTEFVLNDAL

Procathepsin L = Procathepsin L (Homo sapiens, UniProt P07711); test: cathepsin L inhibitors, dose response, counter-screen for M1/M17 aminopeptidase inhibitor project, biochemical, QFRET, 1536-well (AID 2214)
Procathepsin L, sequence (P07711 whole entry): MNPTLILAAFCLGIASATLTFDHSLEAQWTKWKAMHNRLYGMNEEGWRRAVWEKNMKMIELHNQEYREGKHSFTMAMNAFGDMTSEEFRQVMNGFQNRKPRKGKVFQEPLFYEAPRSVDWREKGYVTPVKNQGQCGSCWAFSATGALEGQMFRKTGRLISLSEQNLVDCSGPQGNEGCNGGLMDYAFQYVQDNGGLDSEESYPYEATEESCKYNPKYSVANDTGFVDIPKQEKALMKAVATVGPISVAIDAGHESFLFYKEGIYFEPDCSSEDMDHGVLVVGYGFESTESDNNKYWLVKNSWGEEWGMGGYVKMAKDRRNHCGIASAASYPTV

Aspartyl aminopeptidase = Aspartyl aminopeptidase (Plasmodium falciparum 3D7, UniProt Q8I2J3); test: Counterscreen for inhibitors of M1 and M17 aminopeptidases: QFRET-based biochemical high throughput dose response assay for inhibitors of the Plasmodium falciparum M18 Aspartyl Aminopeptidase (PFM18AAP). [Related PubChem assays: 1619 (Screening assay (M17LAP inhibitors).), 1445 (Screening assay (M1AAP inhibitors).)]
Caspase-7 = biological target: T2, Caspase-7 (Homo sapiens, UniProt P55210); test: human caspase-7 inhibitors, dose response, selectivity assay for caspase-6 inhibitor project, biochemical, DEVD-R110 fluorescence, cherry-pick (AID 743295)
T2 sequence (P55210 whole entry): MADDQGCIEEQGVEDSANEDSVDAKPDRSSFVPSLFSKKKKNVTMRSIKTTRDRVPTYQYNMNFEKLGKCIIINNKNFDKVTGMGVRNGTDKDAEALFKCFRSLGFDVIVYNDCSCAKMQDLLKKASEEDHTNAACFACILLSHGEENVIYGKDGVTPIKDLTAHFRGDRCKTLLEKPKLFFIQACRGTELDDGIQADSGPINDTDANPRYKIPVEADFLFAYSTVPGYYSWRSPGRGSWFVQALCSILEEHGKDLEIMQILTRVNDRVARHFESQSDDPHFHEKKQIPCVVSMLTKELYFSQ

Caspase-8 = Caspase-8 (Homo sapiens, UniProt Q14790); test: caspase-8 inhibition counter-screen, dose response, selectivity assay for caspase-6 inhibitor project, biochemical, Z-IETD-R110 fluorescence, cherry-picked samples (AID 743294)
Caspase-8, sequence (Q14790 217-374 limits assumed): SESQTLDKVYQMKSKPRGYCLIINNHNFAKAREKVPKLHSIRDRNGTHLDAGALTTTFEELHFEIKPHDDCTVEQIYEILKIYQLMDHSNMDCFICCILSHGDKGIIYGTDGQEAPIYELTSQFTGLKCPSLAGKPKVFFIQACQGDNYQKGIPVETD
Caspase-8, sequence (Q14790 385-479 limits assumed): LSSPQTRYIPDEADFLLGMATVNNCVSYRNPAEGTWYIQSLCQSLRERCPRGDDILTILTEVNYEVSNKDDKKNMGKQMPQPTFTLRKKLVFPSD

[1] = biological target: Beta-adrenergic receptor kinase 1 (Homo sapiens, UniProt P25098); test: aptamer displacement from bead-bound GRK2 – biochemical, cherry pick 1, bead flow cytometry, dose response (AID 504500)
Beta-adrenergic receptor kinase 1, sequence (P25098 whole entry): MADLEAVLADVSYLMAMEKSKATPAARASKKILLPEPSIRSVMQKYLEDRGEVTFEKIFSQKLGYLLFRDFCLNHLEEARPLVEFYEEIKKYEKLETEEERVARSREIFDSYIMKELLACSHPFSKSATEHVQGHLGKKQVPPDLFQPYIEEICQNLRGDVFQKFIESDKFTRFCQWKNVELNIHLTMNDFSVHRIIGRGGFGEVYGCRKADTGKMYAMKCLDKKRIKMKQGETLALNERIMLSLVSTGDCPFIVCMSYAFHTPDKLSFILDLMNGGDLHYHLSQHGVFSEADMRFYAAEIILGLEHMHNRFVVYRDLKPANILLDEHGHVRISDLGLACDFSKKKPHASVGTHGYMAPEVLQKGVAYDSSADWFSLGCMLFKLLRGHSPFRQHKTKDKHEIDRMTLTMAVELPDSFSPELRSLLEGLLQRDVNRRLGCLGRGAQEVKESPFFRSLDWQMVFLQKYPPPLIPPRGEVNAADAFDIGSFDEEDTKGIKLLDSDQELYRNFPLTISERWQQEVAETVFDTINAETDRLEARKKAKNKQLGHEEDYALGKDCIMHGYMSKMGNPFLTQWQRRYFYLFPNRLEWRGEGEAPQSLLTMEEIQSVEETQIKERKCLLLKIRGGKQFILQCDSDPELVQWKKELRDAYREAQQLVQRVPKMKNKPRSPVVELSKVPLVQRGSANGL

Caspase-6 = biological target: T3, Caspase-6 (Homo sapiens, UniProt P55212); test: human caspase-6 inhibitors, dose response, biochemical, VEID-R110 fluorescence, cherry-pick (AID 720632)
T3 sequence (P55212 whole entry): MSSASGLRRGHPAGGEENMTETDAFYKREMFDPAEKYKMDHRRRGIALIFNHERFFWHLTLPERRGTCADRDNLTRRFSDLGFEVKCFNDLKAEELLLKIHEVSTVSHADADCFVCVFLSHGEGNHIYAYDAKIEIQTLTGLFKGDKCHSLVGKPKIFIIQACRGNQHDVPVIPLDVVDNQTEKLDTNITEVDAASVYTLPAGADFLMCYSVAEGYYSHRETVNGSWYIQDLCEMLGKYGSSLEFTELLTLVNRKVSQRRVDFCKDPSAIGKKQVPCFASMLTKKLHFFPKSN

[2] = biological target: T4, Carboxy-terminal domain RNA polymerase II polypeptide A small phosphatase 1 (Homo sapiens, UniProt Q9GZU7); test: inhibitors of CTDSP1, concentration-response testing, biochemical assay, absorbance-based, actives from ultra-high-throughput screening (AID 540297); type: functional
T4 sequence (Q9GZU7 whole entry): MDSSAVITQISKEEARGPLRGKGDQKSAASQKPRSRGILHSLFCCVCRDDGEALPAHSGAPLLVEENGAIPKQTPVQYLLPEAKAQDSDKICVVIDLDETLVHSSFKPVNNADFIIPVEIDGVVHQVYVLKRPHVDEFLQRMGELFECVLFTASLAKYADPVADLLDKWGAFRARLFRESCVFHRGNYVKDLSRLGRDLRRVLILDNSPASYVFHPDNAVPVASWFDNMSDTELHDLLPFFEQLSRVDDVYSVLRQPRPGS

Genome polyprotein = Genome polyprotein (dengue virus type 2, UniProt P29990); test: Dengue-2 NS5 methyltransferase inhibitors, primary screen, biochemical, confirmation dose response (AID 588689); type: functional
Genome polyprotein, sequence (P29990 2492-3391 limits assumed): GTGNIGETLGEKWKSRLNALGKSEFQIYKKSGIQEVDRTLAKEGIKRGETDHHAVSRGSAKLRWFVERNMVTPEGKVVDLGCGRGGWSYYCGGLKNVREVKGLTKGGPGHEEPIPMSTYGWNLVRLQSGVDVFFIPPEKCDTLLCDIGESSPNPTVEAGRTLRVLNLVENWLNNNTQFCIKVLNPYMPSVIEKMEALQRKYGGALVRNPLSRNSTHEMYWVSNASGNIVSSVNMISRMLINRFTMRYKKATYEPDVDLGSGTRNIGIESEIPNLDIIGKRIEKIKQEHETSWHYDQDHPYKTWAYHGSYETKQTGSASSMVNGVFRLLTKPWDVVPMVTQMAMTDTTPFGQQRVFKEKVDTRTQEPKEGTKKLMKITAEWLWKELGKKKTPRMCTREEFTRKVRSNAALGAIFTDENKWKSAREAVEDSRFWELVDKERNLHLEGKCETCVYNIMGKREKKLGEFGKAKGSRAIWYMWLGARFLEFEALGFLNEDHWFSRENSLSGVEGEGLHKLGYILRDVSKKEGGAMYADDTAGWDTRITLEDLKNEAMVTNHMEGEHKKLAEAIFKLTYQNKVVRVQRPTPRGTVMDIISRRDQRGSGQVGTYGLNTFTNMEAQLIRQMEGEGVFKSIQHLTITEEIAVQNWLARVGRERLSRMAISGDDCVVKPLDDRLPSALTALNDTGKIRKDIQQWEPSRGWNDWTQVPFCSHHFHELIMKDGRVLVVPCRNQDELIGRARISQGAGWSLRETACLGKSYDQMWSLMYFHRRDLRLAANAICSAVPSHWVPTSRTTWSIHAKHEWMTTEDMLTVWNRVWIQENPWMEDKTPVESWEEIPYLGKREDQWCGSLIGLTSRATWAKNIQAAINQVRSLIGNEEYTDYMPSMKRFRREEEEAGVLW

[3] = HepG2 cell cytotoxicity, dose response, cytotoxicity control for Shn3 inhibitor project, CellTiter-Glo, cherry-picked (AID 624134); type: functional, cell-based
[4] = control 3'UTR Renilla luciferase suppression, dose response, counter-screen for Shn3 inhibitor project, cell-based, Clone20-Shn3RL, cherry-picked (AID 624133); type: functional
Protein RecA = biological target: T5, Protein RecA (Mycobacterium tuberculosis, UniProt P9WHJ3); test: Fluorescence Cell-Free Homogeneous Dose Retest to Identify Inhibitors of RecA-Intein Splicing Activity. [Related pubchem assays (depositor defined):AID2097, AID2223, AID489010, AID492950]; type: functional
T5 sequence (P9WHJ3 whole entry): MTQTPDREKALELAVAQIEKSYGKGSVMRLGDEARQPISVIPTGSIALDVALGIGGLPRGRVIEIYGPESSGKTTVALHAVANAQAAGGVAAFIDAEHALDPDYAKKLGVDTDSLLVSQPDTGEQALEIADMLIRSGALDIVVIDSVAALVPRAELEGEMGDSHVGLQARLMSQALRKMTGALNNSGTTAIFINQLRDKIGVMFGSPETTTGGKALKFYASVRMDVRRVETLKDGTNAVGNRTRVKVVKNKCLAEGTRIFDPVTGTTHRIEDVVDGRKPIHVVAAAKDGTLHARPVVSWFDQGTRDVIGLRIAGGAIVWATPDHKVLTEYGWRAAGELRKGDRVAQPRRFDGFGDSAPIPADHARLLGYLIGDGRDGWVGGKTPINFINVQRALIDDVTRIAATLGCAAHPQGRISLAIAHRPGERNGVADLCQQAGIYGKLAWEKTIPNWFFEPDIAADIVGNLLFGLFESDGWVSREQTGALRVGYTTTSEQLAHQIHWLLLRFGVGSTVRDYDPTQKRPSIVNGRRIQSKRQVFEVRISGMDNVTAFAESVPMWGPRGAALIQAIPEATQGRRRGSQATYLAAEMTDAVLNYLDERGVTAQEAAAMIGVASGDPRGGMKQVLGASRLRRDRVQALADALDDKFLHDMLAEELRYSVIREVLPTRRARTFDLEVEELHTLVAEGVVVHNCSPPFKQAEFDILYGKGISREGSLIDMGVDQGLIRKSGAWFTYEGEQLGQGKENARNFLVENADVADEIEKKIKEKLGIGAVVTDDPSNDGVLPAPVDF

Vero = Vero cell cytotoxicity, cytotoxicity control for flavivirus capping enzyme inhibitors (AID 588742); type: functional; conditions: Chlorocebus sabaeus
[5] = biological target: Potassium voltage-gated channel subfamily KQT member 2 (Rattus norvegicus, UniProt O88943, W236L); test: KCNQ2 channel potentiators, dose response, mechanism study for KCNQ2 potentiator project, cell-based, automated electrophysiology (AID 2603); type: functional
Potassium voltage-gated channel subfamily KQT member 2, sequence (O88943 whole entry W236L): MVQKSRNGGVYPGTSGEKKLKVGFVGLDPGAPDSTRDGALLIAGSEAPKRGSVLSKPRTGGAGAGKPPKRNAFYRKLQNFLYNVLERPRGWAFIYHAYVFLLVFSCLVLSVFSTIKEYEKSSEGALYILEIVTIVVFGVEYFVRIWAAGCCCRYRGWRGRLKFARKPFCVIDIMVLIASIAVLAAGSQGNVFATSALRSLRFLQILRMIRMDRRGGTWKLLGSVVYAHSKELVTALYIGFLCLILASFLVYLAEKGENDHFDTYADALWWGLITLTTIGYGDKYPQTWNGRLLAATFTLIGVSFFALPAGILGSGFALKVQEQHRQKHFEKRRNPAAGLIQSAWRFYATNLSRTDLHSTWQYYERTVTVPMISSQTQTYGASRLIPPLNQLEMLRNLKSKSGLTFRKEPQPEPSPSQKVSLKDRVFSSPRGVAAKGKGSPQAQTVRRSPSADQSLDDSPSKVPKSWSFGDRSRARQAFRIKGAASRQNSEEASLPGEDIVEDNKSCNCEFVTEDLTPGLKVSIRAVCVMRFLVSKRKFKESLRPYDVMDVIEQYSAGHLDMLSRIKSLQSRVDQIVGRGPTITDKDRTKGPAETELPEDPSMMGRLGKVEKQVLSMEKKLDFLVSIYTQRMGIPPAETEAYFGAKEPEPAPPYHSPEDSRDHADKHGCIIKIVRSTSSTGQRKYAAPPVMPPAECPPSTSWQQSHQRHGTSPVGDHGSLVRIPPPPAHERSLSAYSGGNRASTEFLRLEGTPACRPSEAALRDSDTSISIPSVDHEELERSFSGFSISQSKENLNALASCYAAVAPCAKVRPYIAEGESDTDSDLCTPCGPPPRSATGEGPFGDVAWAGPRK

[6] = Shn3 3'UTR reporter inhibitors, dose response, cell-based, Clone20 osteoblasts, firefly luciferase, cherry-picked (AID 624132); type: functional;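 further: firefly luciferase luminescence from reporter carrying the Shn3 3'UTR in osteoblasts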
[7] = biological target: T6, Replicative DNA helicase DnaB (Mycobacterium tuberculosis, UniProt P9WMR3); test: DnaB intein splicing inhibitors, dose response, biochemical, cell-free fluorescence (AID 449749); type: functional
T6 sequence (P9WMR3 whole entry): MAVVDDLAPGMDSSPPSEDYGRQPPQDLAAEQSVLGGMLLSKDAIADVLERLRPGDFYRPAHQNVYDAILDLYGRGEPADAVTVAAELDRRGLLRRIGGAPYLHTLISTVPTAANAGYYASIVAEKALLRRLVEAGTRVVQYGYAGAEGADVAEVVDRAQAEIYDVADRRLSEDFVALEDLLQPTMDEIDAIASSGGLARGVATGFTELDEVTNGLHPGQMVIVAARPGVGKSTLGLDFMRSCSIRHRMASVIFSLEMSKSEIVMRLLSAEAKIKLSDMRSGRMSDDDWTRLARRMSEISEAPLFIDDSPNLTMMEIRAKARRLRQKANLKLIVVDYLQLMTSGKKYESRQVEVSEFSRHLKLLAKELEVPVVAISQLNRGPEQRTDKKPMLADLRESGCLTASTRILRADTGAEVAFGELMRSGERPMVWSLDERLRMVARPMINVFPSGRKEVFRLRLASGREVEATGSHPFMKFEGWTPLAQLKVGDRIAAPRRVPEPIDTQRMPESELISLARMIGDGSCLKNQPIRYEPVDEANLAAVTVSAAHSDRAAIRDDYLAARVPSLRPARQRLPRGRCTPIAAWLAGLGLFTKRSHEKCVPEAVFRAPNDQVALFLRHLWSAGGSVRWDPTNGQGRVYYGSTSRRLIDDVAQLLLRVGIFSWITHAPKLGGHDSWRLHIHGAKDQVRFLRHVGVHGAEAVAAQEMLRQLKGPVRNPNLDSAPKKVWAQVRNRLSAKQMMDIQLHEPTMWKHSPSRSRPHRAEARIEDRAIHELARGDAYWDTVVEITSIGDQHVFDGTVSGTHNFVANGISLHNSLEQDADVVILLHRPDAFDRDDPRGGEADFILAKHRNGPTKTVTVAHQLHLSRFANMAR

[8] = biological target: T7, Hepatocyte nuclear factor 4-alpha (Homo sapiens, UniProt P41235); type: functional, cell-based;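 further: biochemical luminescence-based dose-response counterscreen measuring inhibition of HNF4 dimerization, run alongside a screen for blockers of ABHD5–perilipin-5 interaction; split luciferase complementation of HNF4 fusion proteins in cell lysate measuring dimerization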
T7 sequence (P41235 whole entry): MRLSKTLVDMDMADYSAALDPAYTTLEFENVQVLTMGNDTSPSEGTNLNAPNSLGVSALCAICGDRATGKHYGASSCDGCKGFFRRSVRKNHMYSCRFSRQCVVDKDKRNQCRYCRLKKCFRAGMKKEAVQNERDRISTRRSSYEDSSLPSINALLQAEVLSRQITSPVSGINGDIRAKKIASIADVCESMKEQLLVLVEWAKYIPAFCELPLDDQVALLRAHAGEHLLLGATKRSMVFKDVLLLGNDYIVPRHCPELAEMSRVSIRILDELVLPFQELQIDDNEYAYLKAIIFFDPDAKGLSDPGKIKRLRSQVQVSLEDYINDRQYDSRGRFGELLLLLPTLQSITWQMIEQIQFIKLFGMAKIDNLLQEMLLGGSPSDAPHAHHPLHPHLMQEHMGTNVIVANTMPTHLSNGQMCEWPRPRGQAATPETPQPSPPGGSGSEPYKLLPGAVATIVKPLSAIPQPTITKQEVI

INS1 = test: protection from cytokine-driven beta-cell apoptosis, dose response, JC-1 fluorescence, INS-1E, dry powder, set 2 (AID 488867); type: functional, cell-based; conditions: Rattus norvegicus
Phospholipase D2 = Phospholipase D2 (Homo sapiens, UniProt O14939); test: PLD2 inhibitor potency in cells, dose response (AID 602147); type: functional;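 further: cellular assay in HEK293 cells overexpressing GFP-tagged PLD2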
Phospholipase D2, sequence (O14939 whole entry): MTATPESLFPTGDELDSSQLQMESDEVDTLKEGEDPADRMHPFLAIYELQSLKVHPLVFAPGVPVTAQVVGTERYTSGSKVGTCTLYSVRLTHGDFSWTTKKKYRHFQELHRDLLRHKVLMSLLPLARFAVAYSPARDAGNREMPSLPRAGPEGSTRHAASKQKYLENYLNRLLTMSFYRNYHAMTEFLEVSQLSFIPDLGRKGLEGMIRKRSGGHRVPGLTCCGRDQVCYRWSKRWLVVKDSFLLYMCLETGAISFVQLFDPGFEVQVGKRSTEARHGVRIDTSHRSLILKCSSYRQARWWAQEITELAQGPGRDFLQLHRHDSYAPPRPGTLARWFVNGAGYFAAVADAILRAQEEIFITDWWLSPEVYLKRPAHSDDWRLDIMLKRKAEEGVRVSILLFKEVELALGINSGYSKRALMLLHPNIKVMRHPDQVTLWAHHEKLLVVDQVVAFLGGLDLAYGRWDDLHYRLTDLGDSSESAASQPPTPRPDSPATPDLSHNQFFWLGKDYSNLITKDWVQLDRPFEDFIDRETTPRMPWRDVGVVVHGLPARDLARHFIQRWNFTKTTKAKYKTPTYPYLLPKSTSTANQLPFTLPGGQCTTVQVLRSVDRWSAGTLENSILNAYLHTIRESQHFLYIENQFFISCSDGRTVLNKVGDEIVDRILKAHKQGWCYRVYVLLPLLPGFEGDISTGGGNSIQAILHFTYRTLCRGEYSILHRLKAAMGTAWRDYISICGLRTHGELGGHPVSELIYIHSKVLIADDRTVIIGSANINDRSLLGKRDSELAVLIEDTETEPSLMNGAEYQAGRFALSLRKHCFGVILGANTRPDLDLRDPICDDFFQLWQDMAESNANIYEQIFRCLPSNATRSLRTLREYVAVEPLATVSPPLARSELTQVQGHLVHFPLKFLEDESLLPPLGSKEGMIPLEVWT

Phospholipase D1 = Phospholipase D1 (Homo sapiens, UniProt Q13393); test: PLD1 inhibitor potency in cells, dose response (AID 602151); type: functional;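 further: cellular PLD1 assay in Calu-1 cells stimulated with PMA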
Phospholipase D1, sequence (Q13393 whole entry): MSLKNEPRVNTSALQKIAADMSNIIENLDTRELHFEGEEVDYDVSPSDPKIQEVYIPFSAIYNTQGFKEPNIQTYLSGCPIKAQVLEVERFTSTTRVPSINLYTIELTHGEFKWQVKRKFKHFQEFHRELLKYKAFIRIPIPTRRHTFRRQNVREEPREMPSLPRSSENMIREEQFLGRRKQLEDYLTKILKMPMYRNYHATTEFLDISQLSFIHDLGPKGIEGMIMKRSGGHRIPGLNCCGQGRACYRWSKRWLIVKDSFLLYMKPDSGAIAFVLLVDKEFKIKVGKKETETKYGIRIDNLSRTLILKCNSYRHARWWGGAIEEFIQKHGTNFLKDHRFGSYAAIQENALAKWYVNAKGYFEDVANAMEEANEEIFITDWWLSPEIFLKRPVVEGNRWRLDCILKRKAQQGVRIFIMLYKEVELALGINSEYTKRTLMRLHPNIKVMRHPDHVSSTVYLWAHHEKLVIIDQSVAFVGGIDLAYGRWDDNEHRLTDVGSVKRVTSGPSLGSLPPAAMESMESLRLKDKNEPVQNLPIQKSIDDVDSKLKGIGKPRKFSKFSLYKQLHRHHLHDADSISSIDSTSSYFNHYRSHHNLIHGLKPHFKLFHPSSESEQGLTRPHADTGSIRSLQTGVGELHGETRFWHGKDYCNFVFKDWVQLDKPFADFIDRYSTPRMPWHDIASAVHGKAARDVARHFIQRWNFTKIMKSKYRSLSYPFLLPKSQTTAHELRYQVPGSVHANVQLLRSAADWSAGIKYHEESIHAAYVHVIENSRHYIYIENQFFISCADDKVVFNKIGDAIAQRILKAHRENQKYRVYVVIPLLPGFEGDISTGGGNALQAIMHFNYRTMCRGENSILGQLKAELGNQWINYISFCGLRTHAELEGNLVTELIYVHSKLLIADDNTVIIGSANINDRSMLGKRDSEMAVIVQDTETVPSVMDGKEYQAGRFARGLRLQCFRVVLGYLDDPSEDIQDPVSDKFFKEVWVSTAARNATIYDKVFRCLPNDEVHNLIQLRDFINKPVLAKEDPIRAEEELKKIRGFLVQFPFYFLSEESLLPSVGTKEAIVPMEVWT

Q: Which AC50 (HEK293) does the source give for Cc1cc(C(=O)COC(=O)c2cccnc2O)c(C)n1-c1ccccc1 here?
A: 9.69 µM (active)

Q: What about the IC50 (Leucine aminopeptidase) of the same molecule?
A: 2.67 µM (active)

Q: What about the IC50 (Procathepsin L) of the same molecule?
A: > 59.6 µM (not active)

Q: What about the IC50 (Aspartyl aminopeptidase) of the same molecule?
A: > 73.5 µM (not active)

Q: For O=C(O)C1CCCCC1C(=O)Nc1cccc(Br)c1 (stereo unspecified), which AC50 (Caspase-7) is on record?
A: > 70 µM (inactive)

Q: What about the AC50 (Caspase-8) of the same molecule?
A: 25.8 µM (active)

Q: And the EC50 [1]?
A: 3.85 µM (active)

Q: And the AC50 (Caspase-6)?
A: 0.669 µM (active)

Q: What about the IC50 [2] of the same molecule?
A: 3.06 µM (active)

Q: Which IC50 (Genome polyprotein) does the source give for CCc1nnc(NC(=O)c2nc(S(=O)(=O)Cc3ccccc3)ncc2Cl)s1 here?
A: > 100 µM (active)

Q: And the AC50 [3]?
A: > 70 µM (inactive)

Q: And the AC50 [4]?
A: 11.1 µM (active)

Q: And the EC50 (Protein RecA)?
A: 5.09 µM (active)

Q: And the CC50 (Vero)?
A: 27.6 µM (active)

Q: What about the EC50 [5] of the same molecule?
A: 17.3 µM (active)

Q: What about the AC50 [6] of the same molecule?
A: 2.72 µM (active)

Q: What about the AC50 [7] of the same molecule?
A: 18.5 µM (active)

Q: And the IC50 [8]?
A: 5.95 µM (active)

Q: For COc1ccc(S(=O)(=O)N(C)C[C@@H]2Oc3c(NC(=O)NC(C)C)cccc3C(=O)N([C@@H](C)CO)C[C@H]2C)cc1, which AC50 (INS1) is on record?
A: 46.4 µM (active)

Q: Which results are given for C[C@H](CN1CCC(n2nnc3ccccc32)CC1)NC(=O)c1ccc2ccccc2c1?
A: IC50 (Phospholipase D2): 12 µM (active); IC50 (Phospholipase D1): 3.8 µM (active)

Reference: ChEMBL document CHEMBL1201862, “PubChem BioAssay data set” (2004)
